Tested on: M. abscessus Bamboo
Assay type: cell-based
Details: M. abscessus versus M. tuberculosis

CC(C)(O)COc1ccc(Br)c2c1B(O)O[C@@H]2CN [EC/11770]
frequency of resistance lower than for other benzoxaboroles in M. tuberculosis: 100 fold

From paper PMC8092876, “A Leucyl-tRNA Synthetase Inhibitor with Broad-Spectrum Antimycobacterial Activity” (Antimicrobial Agents and Chemotherapy, 2021)
